Among the data in ChEMBL document CHEMBL3132769, “Fragment growing to retain or alter the selectivity of anchored kinase hinge-binding fragments” (Medchemcomm, 2014) are inhibition values, retold here.

Assay [1] deals with Ribosomal protein S6 kinase alpha-3 (Homo sapiens) (UniProt P51812). In words: Inhibition of human full length RSK2 expressed in baculovirus assessed as substrate phosphorylation using fluorescence-labelled peptides as substrate at 2 uM after 90 mins by microfluidic peptide phosphorylation assay.
Ribosomal protein S6 kinase alpha-3 (Homo sapiens), sequence (P51812 whole entry): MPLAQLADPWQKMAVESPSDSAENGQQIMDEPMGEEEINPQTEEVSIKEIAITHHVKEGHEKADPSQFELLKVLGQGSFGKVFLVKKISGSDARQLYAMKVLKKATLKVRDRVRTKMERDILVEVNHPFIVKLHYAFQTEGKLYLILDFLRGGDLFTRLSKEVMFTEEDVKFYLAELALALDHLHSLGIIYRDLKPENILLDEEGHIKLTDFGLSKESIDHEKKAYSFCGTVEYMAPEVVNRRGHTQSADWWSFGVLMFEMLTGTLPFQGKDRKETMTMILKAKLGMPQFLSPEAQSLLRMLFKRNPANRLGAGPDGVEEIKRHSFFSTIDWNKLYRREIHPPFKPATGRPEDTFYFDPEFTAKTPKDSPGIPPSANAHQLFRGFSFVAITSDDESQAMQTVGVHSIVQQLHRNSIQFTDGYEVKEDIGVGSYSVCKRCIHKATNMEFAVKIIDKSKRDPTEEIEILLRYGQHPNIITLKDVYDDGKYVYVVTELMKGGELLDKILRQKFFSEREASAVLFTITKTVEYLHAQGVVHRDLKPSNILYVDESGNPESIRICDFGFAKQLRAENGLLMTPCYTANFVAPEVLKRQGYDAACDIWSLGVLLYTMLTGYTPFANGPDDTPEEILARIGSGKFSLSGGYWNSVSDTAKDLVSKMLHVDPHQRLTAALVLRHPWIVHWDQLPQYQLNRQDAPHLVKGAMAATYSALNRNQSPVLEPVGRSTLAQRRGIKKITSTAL
In assay [2] the target is T1, Serine/threonine-protein kinase Nek2 (Homo sapiens) (UniProt P51955).
T1 sequence (whole entry): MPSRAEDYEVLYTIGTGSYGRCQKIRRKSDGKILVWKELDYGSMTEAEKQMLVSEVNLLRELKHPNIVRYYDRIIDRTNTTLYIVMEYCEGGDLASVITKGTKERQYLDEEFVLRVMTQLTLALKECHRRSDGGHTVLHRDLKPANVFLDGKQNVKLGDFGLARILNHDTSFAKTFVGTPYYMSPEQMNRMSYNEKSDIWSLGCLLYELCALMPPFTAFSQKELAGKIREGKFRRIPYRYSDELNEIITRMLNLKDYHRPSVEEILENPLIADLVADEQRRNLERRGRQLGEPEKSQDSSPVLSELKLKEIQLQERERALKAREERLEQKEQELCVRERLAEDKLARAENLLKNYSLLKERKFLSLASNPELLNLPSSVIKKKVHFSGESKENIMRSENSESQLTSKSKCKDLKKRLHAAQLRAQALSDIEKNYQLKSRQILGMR
In words: Inhibition of human full length NEK2 expressed in baculovirus assessed as substrate phosphorylation using fluorescence-labelled peptides as substrate at 0.1 uM after 90 mins by microfluidic peptide phosphorylation assay.

The target in assay [3] is T2, Cytoplasmic tyrosine-protein kinase BMX (Homo sapiens) (UniProt P51813).
T2 sequence (whole entry): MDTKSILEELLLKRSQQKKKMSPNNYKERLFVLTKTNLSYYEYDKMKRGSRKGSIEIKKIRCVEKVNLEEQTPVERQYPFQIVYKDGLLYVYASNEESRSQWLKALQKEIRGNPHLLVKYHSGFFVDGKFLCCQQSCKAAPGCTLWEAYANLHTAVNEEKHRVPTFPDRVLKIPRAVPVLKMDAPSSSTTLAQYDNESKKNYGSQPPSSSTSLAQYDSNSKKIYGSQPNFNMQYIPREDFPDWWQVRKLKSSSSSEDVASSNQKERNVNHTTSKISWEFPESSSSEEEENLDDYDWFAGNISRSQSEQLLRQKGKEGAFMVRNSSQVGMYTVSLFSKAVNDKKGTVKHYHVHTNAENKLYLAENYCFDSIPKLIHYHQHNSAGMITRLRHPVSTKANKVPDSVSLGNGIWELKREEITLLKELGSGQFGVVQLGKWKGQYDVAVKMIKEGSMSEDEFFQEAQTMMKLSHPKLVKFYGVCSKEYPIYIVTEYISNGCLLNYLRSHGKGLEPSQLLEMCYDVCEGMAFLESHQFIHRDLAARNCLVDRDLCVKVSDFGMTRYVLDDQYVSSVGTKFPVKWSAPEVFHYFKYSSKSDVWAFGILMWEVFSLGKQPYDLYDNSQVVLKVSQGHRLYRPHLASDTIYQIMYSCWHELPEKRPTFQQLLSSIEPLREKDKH
Briefly: Inhibition of human full length BMX expressed in baculovirus assessed as substrate phosphorylation using fluorescence-labelled peptides as substrate at 0.1 uM after 90 mins by microfluidic peptide phosphorylation assay.

In assay [4] the target is T3, Serine/threonine-protein kinase Sgk2 (Homo sapiens) (UniProt Q9HBY8).
T3 sequence (whole entry): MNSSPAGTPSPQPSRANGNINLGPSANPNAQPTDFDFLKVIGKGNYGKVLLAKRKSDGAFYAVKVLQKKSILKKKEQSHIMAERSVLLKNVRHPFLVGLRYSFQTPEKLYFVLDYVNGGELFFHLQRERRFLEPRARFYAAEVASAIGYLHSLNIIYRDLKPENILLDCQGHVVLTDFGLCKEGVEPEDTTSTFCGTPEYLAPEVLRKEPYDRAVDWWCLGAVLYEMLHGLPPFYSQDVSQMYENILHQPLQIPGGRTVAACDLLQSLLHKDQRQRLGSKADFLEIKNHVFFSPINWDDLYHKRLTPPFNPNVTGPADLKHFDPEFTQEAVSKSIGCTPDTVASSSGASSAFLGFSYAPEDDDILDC
Briefly: Inhibition of human full length SGK2 expressed in baculovirus assessed as substrate phosphorylation using fluorescence-labelled peptides as substrate at 9 uM after 90 mins by microfluidic peptide phosphorylation assay.

Assay [5] deals with Protein kinase C delta type (Homo sapiens) (UniProt Q05655). Briefly: Inhibition of human truncated PKC delta expressed in baculovirus assessed as substrate phosphorylation using fluorescence-labelled peptides as substrate at 95 uM after 90 mins by microfluidic peptide phosphorylation assay.
Protein kinase C delta type (Homo sapiens), sequence (Q05655 whole entry, looked up, the tested form may be a part): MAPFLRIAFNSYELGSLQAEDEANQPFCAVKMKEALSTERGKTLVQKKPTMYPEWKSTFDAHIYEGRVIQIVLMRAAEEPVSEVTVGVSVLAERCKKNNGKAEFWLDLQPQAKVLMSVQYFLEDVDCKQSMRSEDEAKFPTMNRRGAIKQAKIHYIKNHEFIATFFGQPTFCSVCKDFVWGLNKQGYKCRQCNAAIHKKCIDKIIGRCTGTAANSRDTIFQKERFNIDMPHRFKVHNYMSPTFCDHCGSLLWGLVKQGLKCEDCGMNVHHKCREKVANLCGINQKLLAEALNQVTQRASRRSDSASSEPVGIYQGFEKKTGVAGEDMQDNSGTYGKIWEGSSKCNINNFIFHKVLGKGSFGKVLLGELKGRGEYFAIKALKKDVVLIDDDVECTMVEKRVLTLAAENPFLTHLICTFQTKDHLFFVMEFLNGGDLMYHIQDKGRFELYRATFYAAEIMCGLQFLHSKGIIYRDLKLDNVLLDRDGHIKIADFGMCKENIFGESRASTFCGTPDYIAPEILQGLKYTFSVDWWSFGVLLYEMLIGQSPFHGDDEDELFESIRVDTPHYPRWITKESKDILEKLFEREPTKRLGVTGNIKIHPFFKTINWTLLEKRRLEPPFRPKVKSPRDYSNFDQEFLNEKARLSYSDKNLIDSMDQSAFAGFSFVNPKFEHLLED
Assay [6] deals with Mitogen-activated protein kinase 14 (Homo sapiens) (UniProt Q16539). Briefly: Inhibition of human truncated p38 alpha expressed in Escherichia coli cell assessed as substrate phosphorylation using fluorescence-labelled peptides as substrate at 8 uM after 90 mins by microfluidic peptide phosphorylation assay.
Mitogen-activated protein kinase 14 (Homo sapiens), sequence (Q16539 whole entry, the tested form may be a part): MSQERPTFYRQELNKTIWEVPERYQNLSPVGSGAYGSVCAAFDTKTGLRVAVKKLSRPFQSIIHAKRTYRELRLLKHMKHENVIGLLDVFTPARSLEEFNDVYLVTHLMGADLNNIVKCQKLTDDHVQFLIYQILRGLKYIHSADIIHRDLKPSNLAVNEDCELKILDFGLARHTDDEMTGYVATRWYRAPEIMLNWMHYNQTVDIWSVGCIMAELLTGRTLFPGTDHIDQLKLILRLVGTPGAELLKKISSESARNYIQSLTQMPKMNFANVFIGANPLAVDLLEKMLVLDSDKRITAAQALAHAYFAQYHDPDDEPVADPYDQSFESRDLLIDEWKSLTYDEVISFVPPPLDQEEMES
In assay [7] the target is T4, Inhibitor of nuclear factor kappa-B kinase subunit beta (Homo sapiens) (UniProt O14920).
T4 sequence (whole entry): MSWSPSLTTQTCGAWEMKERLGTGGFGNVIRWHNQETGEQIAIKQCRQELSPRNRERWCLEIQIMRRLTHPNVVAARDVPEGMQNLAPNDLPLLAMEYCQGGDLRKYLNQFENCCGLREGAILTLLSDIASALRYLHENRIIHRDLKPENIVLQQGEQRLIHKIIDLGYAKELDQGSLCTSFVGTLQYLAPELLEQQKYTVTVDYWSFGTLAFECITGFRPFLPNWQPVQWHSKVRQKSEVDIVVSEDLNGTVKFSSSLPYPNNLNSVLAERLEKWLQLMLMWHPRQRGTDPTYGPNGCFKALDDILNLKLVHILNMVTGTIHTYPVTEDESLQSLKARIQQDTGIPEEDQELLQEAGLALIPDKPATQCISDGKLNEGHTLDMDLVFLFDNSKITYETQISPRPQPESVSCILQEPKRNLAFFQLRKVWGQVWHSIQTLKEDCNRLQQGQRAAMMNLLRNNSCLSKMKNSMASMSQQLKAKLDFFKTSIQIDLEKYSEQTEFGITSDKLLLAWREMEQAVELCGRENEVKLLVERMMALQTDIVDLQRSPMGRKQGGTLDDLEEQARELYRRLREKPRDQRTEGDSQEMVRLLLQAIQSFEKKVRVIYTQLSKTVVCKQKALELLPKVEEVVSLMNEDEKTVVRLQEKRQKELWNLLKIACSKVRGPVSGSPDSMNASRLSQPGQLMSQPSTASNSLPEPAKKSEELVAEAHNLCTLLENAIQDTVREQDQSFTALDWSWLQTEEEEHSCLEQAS
Briefly: Inhibition of human full length IKK beta expressed in baculovirus assessed as substrate phosphorylation using fluorescence-labelled peptides as substrate at 70 uM after 90 mins by microfluidic peptide phosphorylation assay.

As to `NC1CCN(c2ncnc3[nH]ccc23)CC1`, the inhibition in assay [1] stood at 2%.
In the case of `C[C@H](CN(C)C)Oc1nc(Nc2cc3cccc(Cl)c3cn2)cnc1C#N`, the results for the inhibition in assay [2] and in assay [3] were 2% and 3%, respectively.
In the case of `NCC1CN(c2ncnc3[nH]c4cnccc4c23)CCO1` (configuration not stated), the inhibition in assay [4] turned out to be 48.5%.
Consider `NCCc1ccc(-c2ncnc3[nH]cnc23)cc1`, for which, in assay [5], the inhibition was 72%.
Consider `NCC1CCN(c2ncnc3[nH]ccc23)CC1`, for which, in assay [6], the inhibition is 7%.
Take `CNCc1ccc(-c2ncnc3[nH]cnc23)cc1`: the inhibition in assay [7] is 90.5%.

The inhibition is the share of the control response that was lost under treatment.
